Data on 12 molecules can be found in patent US7375226B2, “Bi- and tricyclic substituted phenyl methanones” (Hoffman-La Roche Inc., priority 2004, dated 2008).

The term IC50 denotes the concentration at which inhibition is half-maximal.

This experiment addresses T1, mGlyT-1b (Mus musculus, UniProt P28571).
T1 construct: host or cells: Flp-in-CHO
T1 sequence (P28571 1-651 isoform P28571-2): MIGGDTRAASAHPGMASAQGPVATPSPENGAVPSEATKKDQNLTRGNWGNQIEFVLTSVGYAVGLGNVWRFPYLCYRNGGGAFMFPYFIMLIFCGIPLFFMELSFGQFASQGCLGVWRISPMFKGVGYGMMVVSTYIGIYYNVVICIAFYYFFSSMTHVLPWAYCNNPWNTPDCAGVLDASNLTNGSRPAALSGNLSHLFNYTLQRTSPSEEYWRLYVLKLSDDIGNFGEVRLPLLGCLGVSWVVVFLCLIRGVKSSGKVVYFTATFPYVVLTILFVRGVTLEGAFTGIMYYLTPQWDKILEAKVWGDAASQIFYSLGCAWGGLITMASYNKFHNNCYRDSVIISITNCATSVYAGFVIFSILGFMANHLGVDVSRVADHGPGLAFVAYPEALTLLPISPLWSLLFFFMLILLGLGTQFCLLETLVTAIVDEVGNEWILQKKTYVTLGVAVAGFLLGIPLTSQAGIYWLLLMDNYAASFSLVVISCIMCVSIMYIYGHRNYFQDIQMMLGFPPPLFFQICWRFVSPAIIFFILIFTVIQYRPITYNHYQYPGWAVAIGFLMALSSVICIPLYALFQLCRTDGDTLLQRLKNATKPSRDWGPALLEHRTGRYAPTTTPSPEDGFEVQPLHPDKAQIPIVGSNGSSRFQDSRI
The experiment can be described thus: Glycine uptake inhibition assay (mGlyT-1b), [3H]-glycine uptake in Flp-in-CHO cells. In kind it is cell-based. Particulars: Flp-in-CHO cells stably transfected with mGlyT1b cDNA; [3H]-glycine 60 nM and 25 μM non-radioactive glycine; read-out: IC50 (μM) at GlyT-1. How it is done:
• DMEM complete medium: Nutrient mixture F-12 (Gibco Life-technologies), fetal bovine serum (FBS) 5%, (Gibco life technologies), Penicillin/Streptomycin 1% (Gibco life technologies), Hygromycin 0.6 mg/ml (Gibco life technologies), Glutamine 1 mM Gibco life technologies). • Uptake buffer (UB): 150 mM NaCl, 10 mM Hepes-Tris, pH 7.4, 1 mM CaCl2, 2.5 mM KCl, 2.5 mM MgSO4, 10 mM (+) D-glucose. • Flp-in™-CHO (Invitrogen Cat n° R758-07)cells stably transfected with mGlyT1b cDNA. • Glycine uptake inhibition assay (mGlyT-1b)
On day 1 mammalian cells, (Flp-in™-CHO), transfected with mGlyT-1b cDNA, were plated at the density of 40,000 cells/well in complete F-12 medium, without hygromycin in 96-well culture plates. On day 2, the medium was aspirated and the cells were washed twice with uptake buffer (UB). The cells were then incubated for 20 min at 22° C. with either (i) no potential competitor, (ii) 10 mM non-radioactive glycine, (iii) a concentration of a potential inhibitor. A range of concentration of the potential inhibitor was used to generate data for calculating the concentration of inhibitor resulting in 50% of the effect (e.g. IC50, the concentration of the competitor inhibiting glycine uptake of 50%). A solution was then immediately added containing [^3H]-glycine 60 nM (11-16 Ci/mmol) and 25 μM non-radioactive glycine. The plates were incubated with gentle shaking and the reaction was stopped by aspiration of the mixture and washing (three times) with ice-cold UB. The cells were lysed with scintillation liquid, shaken 3 hours and the radioactivity in the cells was counted using a scintillation counter.
As to `CC(C)Oc1ccc(S(C)(=O)=O)cc1C(=O)N1CCN2c3ccc(OC(F)(F)F)cc3CC2C1` (racemic) [Example 14, Rac-(2-Isopropoxy-5-methanesulfonyl-phenyl)-(8-trifluoromethoxy-3,4,10,10a-tetrahydro-1H-pyrazino[1,2-a]indol-2-yl)-methanone], the IC50 came to 0.154 µM.
To `CC(C)Oc1ccc(S(C)(=O)=O)cc1C(=O)N1CCc2c(sc3ccc(Cl)cc23)C1` [Example 1, (6-Chloro-3,4-dihydro-1H-benzo[4,5]thieno[2,3-c]pyridin-2-yl)-(2-isopropoxy-5-methanesulfonyl-phenyl)-methanone] belongs 0.019 µM; to `CS(=O)(=O)c1ccc(N2CCOCC2)c(C(=O)N2CCc3c(sc4ccc(Cl)cc34)C2)c1` [Example 2, (6-Chloro-3,4-dihydro-1H-benzo[4,5]thieno[2,3-c]pyridin-2-yl)-(5-methanesulfonyl-2-morpholin-4-yl-phenyl)-methanone], 0.187 µM; to `CC(C)COc1ccc(S(C)(=O)=O)cc1C(=O)N1CCc2nc(-c3cccs3)sc2C1` [Example 5, (2-Isobutoxy-5-methanesulfonyl-phenyl)-(2-thiophen-2-yl-6,7-dihydro-4H-thiazolo[5,4-c]pyridin-5-yl)-methanone], 0.098 µM.
To `CC(C)Oc1ccc(S(C)(=O)=O)cc1C(=O)N1CCc2nc(-c3cccs3)sc2C1` [Example 6, (2-Isopropoxy-5-methanesulfonyl-phenyl)-(2-thiophen-2-yl-6,7-dihydro-4H!-thiazolo[5,4-c]pyridin-5-yl)-methanone] belongs 0.407 µM.
Next, `CC(C)Oc1ccc(S(C)(=O)=O)cc1C(=O)N1CCn2c(cc3ccc(Cl)cc32)C1` [Example 9, (7-Chloro-3,4-dihydro-1H-pyrazino[1,2-a]indol-2-yl)-(2-isopropoxy-5-methanesulfonyl-phenyl)-methanone]: 0.134 µM.
On to `CC(C)Oc1ccc(S(C)(=O)=O)cc1C(=O)N1CCn2c(cc3cc(OC(F)(F)F)ccc32)C1` [Example 11, (2-Isopropoxy-5-methanesulfonyl-phenyl)-(8-trifluoromethoxy-3,4-dihydro-1H-pyrazino[1,2-a]indol-2-yl)-methanone], for which the IC50 came to 0.088 µM.
Next, `CS(=O)(=O)c1ccc(OC2CCCC2)c(C(=O)N2CCn3c(nc4ccccc43)C2)c1` [Example 15, (2-Cyclopentyloxy-5-methanesulfonyl-phenyl)-(3,4-dihydro-1H-benzo[4,5]imidazo[1,2-a]pyrazin-2-yl)-methanone]: 0.367 µM; `CC(C)Oc1ccc(C#N)cc1C(=O)N1CCc2c(sc3ccc(Cl)cc23)C1` [Example 19, 3-(6-Chloro-3,4-dihydro-1H-benzo[4,5]thieno[2,3-c]pyridine-2-carbonyl)-4-isopropoxy-benzonitrile]: 0.339 µM.
Next, `CS(=O)(=O)c1ccc(OCC2CC2)c(C(=O)N2CCc3c(sc4ccc(Cl)cc34)C2)c1` [Example 20, (6-Chloro-3,4-dihydro-1H-benzo[4,5]thieno[2,3-c]pyridin-2-yl)-(2-cyclopropylmethoxy-5-methanesulfonyl-phenyl)-methanone]: 0.026 µM; `C[C@H](Oc1ccc(S(C)(=O)=O)cc1C(=O)N1CCc2c(sc3ccc(Cl)cc23)C1)C(F)(F)F` [Example 22, (6-Chloro-3,4-dihydro-1H-benzo[4,5]thieno[2,3-c]pyridin-2-yl)-[5-methanesulfonyl-2-((S)-2,2,2-trifluoro-1-methyl-ethoxy)-phenyl]-methanone]: 0.023 µM.
Next, `CC(C)COc1ccc(S(C)(=O)=O)cc1C(=O)N1CCc2nc(-c3ccc(C(F)(F)F)cc3)sc2C1` [Example 23, (2-Isobutoxy-5-methanesulfonyl-phenyl)-[2-(4-trifluoromethyl-phenyl)-6,7-dihydro-4H-thiazolo[5,4-c]pyridin-5-yl]-methanone]: 0.341 µM.
